{
  "source": "patent US20130129667A1",
  "about": "“Attractant compounds for yellow jacket wasps” (priority 2007, published 2013)",
  "type_in_all_cases": "in vivo",
  "key": {"Vespula germanica": {"tested_on": "Vespula germanica", "assay": "Field trap catch of yellow jacket wasps with attractant", "procedure": "(§1) On the top inside of the bottle, 2 cm below the cap 17, a 10 ml 'micro' glass vial 19 was installed. In this small container, 0.1 ml of an attractive compound 20 was deposited. In the bottom of the 500 ml bottle, 200 ml of water with liquid household detergent 22 was placed. The traps 10 or containers with the attractant 20, were placed randomly in different species of trees, mostly 'thorns,' Acacia […] Tebo, […] Lo Orozco, and apple trees in Casablanca (Chile), each hung from a wire 24, at a height of about 11⁄2 m from the ground, with a separation between them of about 10 m. […] The traps 10 were placed in Catapilco in the […] farm the 19th of February 2007, in the geographical locations of 33° 37' 06'' S. and 71° 19' 14'' O, for the Campo Lindo farm in Casablanca in 33° 14' 23'' S. and 71° 17' 37'' O on the 20th of February 2007 and Lo Orozco in 33° 13'26'' S. and 71° 24' 04'' O the 9th of April 2007. […] In the extent it was necessary the containers were filled up with water and detergent."}, "Other insects": {"tested_on": "Other insects", "assay": "Field trap catch of other insects (selectivity)", "procedure": "as §1"}, "Bees": {"tested_on": "Bees", "assay": "Field trap catch of bees (selectivity)", "conditions": "Lo Orozco; 21 days; five containers per attractant", "procedure": "(§2) On the top inside of the bottle, 2 cm below the cap 17, a 10 ml 'micro' glass vial 19 was installed. In this small container, 0.1 ml of an attractive compound 20 was deposited. In the bottom of the 500 ml bottle, 200 ml of water with liquid household detergent 22 was placed. The traps 10 or containers with the attractant 20, were placed randomly in different species of trees, mostly 'thorns,' Acacia […] Tebo, […] Lo Orozco, and apple trees in Casablanca (Chile), each hung from a wire 24, at a height of about 11⁄2 m from the ground, with a separation between them of about 10 m. Two replications were used per each attractant in Catapilco, and five replications in Lo Orozco and Casablanca. The traps 10 were placed in Catapilco in the […] farm the 19th of February 2007, in the geographical locations of 33° 37' 06'' S. and 71° 19' 14'' O, for the Campo Lindo farm in Casablanca in 33° 14' 23'' S. and 71° 17' 37'' O on the 20th of February 2007 and Lo Orozco in 33° 13'26'' S. and 71° 24' 04'' O the 9th of April 2007. […] In the extent it was necessary the containers were filled up with water and detergent."}, "Polistes": {"tested_on": "Polistes", "assay": "Field trap catch of Polistes (selectivity)", "conditions": "Lo Orozco; 21 days; five containers per attractant", "procedure": "as §2"}, "[1]": {"conditions": "Campo Lindo farm, Casablanca, 18 days, two containers per attractant, 0.1 ml"}, "[2]": {"conditions": "Manantiales farm, Catapilco, 17 days, two containers per attractant, 0.1 ml"}, "[3]": {"conditions": "Lo Orozco, 21 days, five containers per attractant"}},
  "data": [
    {"smiles": "CCCC/C=C/C=C/C=O", "note": "[Trans,trans-2,4-nonadienal]", "values": [
      {"measurement": "Total number of V. germanica workers captured", "setting": "Vespula germanica; [1]", "result": 218},
      {"measurement": "Total number of V. germanica workers captured", "setting": "Vespula germanica; [2]", "result": 0},
      {"measurement": "Total number of other insects captured", "setting": "Other insects; [1]", "result": 0},
      {"measurement": "Total number of other insects captured", "setting": "Other insects; [2]", "result": 0}
    ]},
    {"smiles": "CCCCCCC(C)=O", "note": "[2-Octanone]", "values": [
      {"measurement": "Total number of Bees captured", "setting": "Bees", "result": 0},
      {"measurement": "Total number of Polistes captured", "setting": "Polistes", "result": 1},
      {"measurement": "Total number of V. germanica workers captured", "setting": "Vespula germanica; [1]", "result": 209},
      {"measurement": "Attraction compared with the standard mixture of acetic acid with isobutanol", "setting": "Vespula germanica; Lo Orozco field tests", "result": "superior"},
      {"measurement": "Total number of V. germanica workers captured", "setting": "Vespula germanica; [3]", "result": 2.673},
      {"measurement": "Total number of V. germanica workers captured", "setting": "Vespula germanica; [2]", "result": 416},
      {"measurement": "Total number of other insects captured", "setting": "Other insects; [1]", "result": 1, "unit": "Moth"},
      {"measurement": "Total number of other insects captured", "setting": "Other insects; [3]", "result": 0},
      {"measurement": "Total number of other insects captured", "setting": "Other insects; [2]", "result": 0}
    ]},
    {"smiles": "CCCCCCC=O", "note": "[Heptaldehyde]", "values": [
      {"measurement": "Total number of V. germanica workers captured", "setting": "Vespula germanica; [1]", "result": 129},
      {"measurement": "Total number of V. germanica workers captured", "setting": "Vespula germanica; [2]", "result": 9},
      {"measurement": "Total number of other insects captured", "setting": "Other insects; [1]", "result": 0},
      {"measurement": "Total number of other insects captured", "setting": "Other insects; [2]", "result": 0}
    ]},
    {"smiles": "CCCCC=O", "note": "[Valeraldehyde]", "values": [
      {"measurement": "Total number of V. germanica workers captured", "setting": "Vespula germanica; [1]", "result": 84},
      {"measurement": "Total number of V. germanica workers captured", "setting": "Vespula germanica; [2]", "result": 24},
      {"measurement": "Total number of other insects captured", "setting": "Other insects; [1]", "result": 0},
      {"measurement": "Total number of other insects captured", "setting": "Other insects; [2]", "result": 0}
    ]},
    {"smiles": "CCCCCCCCCCCCO", "note": "[1-Dodecanol]", "values": [
      {"measurement": "Total number of V. germanica workers captured", "setting": "Vespula germanica; [1]", "result": 102},
      {"measurement": "Total number of V. germanica workers captured", "setting": "Vespula germanica; [2]", "result": 0},
      {"measurement": "Total number of other insects captured", "setting": "Other insects; [1]", "result": 1, "unit": "Sirfid"},
      {"measurement": "Total number of other insects captured", "setting": "Other insects; [2]", "result": 0}
    ]},
    {"smiles": "CCCCCCCC=O", "note": "[Octyl aldehyde]", "values": [
      {"measurement": "Total number of V. germanica workers captured", "setting": "Vespula germanica; [1]", "result": 101},
      {"measurement": "Total number of V. germanica workers captured", "setting": "Vespula germanica; [2]", "result": 3},
      {"measurement": "Total number of other insects captured", "setting": "Other insects; [1]", "result": 0},
      {"measurement": "Total number of other insects captured", "setting": "Other insects; [2]", "result": 0}
    ]},
    {"smiles": "CCCCCC(=O)CC", "note": "[3-Octanone]", "values": [
      {"measurement": "Total number of Bees captured", "setting": "Bees", "result": 0},
      {"measurement": "Total number of Polistes captured", "setting": "Polistes", "result": 0},
      {"measurement": "Total number of V. germanica workers captured", "setting": "Vespula germanica; [1]", "result": 218},
      {"measurement": "Total number of V. germanica workers captured", "setting": "Vespula germanica; [3]", "result": 892},
      {"measurement": "Total number of V. germanica workers captured", "setting": "Vespula germanica; [2]", "result": 356},
      {"measurement": "Total number of other insects captured", "setting": "Other insects; [1]", "result": 0},
      {"measurement": "Total number of other insects captured", "setting": "Other insects; [3]", "result": 0}
    ]},
    {"smiles": "CCCCCCCC(C)=O", "note": "[2-Nonanone]", "values": [
      {"measurement": "Total number of V. germanica workers captured", "setting": "Vespula germanica; [1]", "result": 178},
      {"measurement": "Total number of V. germanica workers captured", "setting": "Vespula germanica; [2]", "result": 0},
      {"measurement": "Total number of other insects captured", "setting": "Other insects; [1]", "result": 0},
      {"measurement": "Total number of other insects captured", "setting": "Other insects; [2]", "result": 0}
    ]},
    {"smiles": "CCCCC/C=C/C=C/C=O", "note": "[Trans,trans-2,4-decadienal]", "values": [
      {"measurement": "Total number of V. germanica workers captured", "setting": "Vespula germanica; [1]", "result": 5},
      {"measurement": "Total number of V. germanica workers captured", "setting": "Vespula germanica; [2]", "result": 84},
      {"measurement": "Total number of other insects captured", "setting": "Other insects; [1]", "result": 0},
      {"measurement": "Total number of other insects captured", "setting": "Other insects; [2]", "result": 0}
    ]},
    {"smiles": "CCCCCC(C)=O", "note": "[2-Heptanone]", "values": [
      {"measurement": "Total number of V. germanica workers captured", "setting": "Vespula germanica; [1]", "result": 92},
      {"measurement": "Total number of V. germanica workers captured", "setting": "Vespula germanica; [2]", "result": 69},
      {"measurement": "Total number of other insects captured", "setting": "Other insects; [1]", "result": 0},
      {"measurement": "Total number of other insects captured", "setting": "Other insects; [2]", "result": 0}
    ]},
    {"smiles": "CCCC/C=C/C=O", "note": "[Trans-2-heptenal]", "values": [
      {"measurement": "Total number of Bees captured", "setting": "Bees", "result": 0},
      {"measurement": "Total number of Polistes captured", "setting": "Polistes", "result": 0},
      {"measurement": "Total number of V. germanica workers captured", "setting": "Vespula germanica; [1]", "result": 252},
      {"measurement": "Total number of V. germanica workers captured", "setting": "Vespula germanica; [3]", "result": 999},
      {"measurement": "Total number of V. germanica workers captured", "setting": "Vespula germanica; [2]", "result": 407},
      {"measurement": "Total number of other insects captured", "setting": "Other insects; [1]", "result": 0},
      {"measurement": "Total number of other insects captured", "setting": "Other insects; [3]", "result": 0},
      {"measurement": "Total number of other insects captured", "setting": "Other insects; [2]", "result": 0}
    ]},
    {"smiles": "CCCCC/C=C/CO", "note": "[Trans-2-octen-1-ol]", "values": [
      {"measurement": "Total number of Bees captured", "setting": "Bees", "result": 2},
      {"measurement": "Total number of Polistes captured", "setting": "Polistes", "result": 1},
      {"measurement": "Total number of V. germanica workers captured", "setting": "Vespula germanica; [1]", "result": 297},
      {"measurement": "Total number of V. germanica workers captured", "setting": "Vespula germanica; [2]", "result": 474},
      {"measurement": "Total number of other insects captured", "setting": "Other insects; [1]", "result": 0},
      {"measurement": "Total number of other insects captured", "setting": "Other insects; [3]", "result": 0},
      {"measurement": "Total number of other insects captured", "setting": "Other insects; [2]", "result": 1, "unit": "Bee"}
    ]},
    {"smiles": "CCCCCCCCC=O", "note": "[Nonyl aldehyde]", "values": [
      {"measurement": "Total number of V. germanica workers captured", "setting": "Vespula germanica; [1]", "result": 97},
      {"measurement": "Total number of V. germanica workers captured", "setting": "Vespula germanica; [2]", "result": 1},
      {"measurement": "Total number of other insects captured", "setting": "Other insects; [1]", "result": 0},
      {"measurement": "Total number of other insects captured", "setting": "Other insects; [2]", "result": 3, "unit": "Bees"}
    ]}
  ]
}
